In PubChem BioAssay (NCI):
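Cultured in 96-well plates, cells were exposed to test compound for 48 hours across five concentrations. GI50 = concentration required for 50% inhibition of growth. The concentration for full growth arrest is given as TGI.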

How the values were obtained:
Experiment in all cases: NCI anticancer screen, dose series, 48 h
[1] = test system: HL-60(TB) leukemia
[2] = test system: K-562 leukemia
[3] = test system: LOX IMVI melanoma
[4] = test system: NCI-H23 lung
[5] = test system: RPMI-8226 leukemia
[6] = test system: SF-268 CNS
[7] = test system: SK-MEL-2 melanoma
[8] = test system: SNB-75 CNS
[9] = test system: TK-10 renal
[10] = test system: MCF7 breast

Compound	TGI [1]	TGI [2]	TGI [3]	TGI [4]	TGI [5]	TGI [6]	TGI [7]	TGI [8]	TGI [9]	GI50 [10]	TGI [10]	GI50 [4]	GI50 [5]	GI50 [6]	GI50 [7]	GI50 [8]	GI50 [9]
CN(C)c1ccc(C=C2C(=O)OC(C)(C)OC2=O)cc1Br	> 100 µM	> 100 µM	> 100 µM	> 100 µM	> 100 µM	> 100 µM	> 100 µM	> 100 µM	> 100 µM								
Cc1cc(N(CCC#N)CCC#N)ccc1/C=C/C(=O)Nc1cccc(Cl)c1	> 100 µM	> 100 µM	> 100 µM	> 100 µM	> 100 µM	> 100 µM	> 100 µM	> 100 µM	> 100 µM								
COc1ccc(N=c2ssc3c(=S)ssc23)cc1	28.2 µM	22.5 µM	34.1 µM	> 100 µM	38.3 µM	> 100 µM	> 100 µM	75.6 µM	> 100 µM								
CSCC1CC(c2ccc(Cl)cc2)=NO1 (centres undefined)	> 100 µM	> 100 µM		> 100 µM	> 100 µM	> 100 µM	> 100 µM	> 100 µM	> 100 µM								
CC(=O)C1=CSC2[C@H](NC(=O)Cc3ccccc3)C(=O)N2C1C(=O)OC(c1ccccc1)c1ccccc1 (some centres undefined)	> 100 µM	> 100 µM		> 100 µM	> 100 µM	> 100 µM	> 100 µM	> 100 µM	> 100 µM								
CCOC1(COP(=O)(OCc2ccccc2)OCc2ccccc2)COC(COP(=O)(OCc2ccccc2)OCc2ccccc2)(OCC)CO1 (centres undefined)	> 100 µM	> 100 µM	> 100 µM	> 100 µM	> 100 µM	> 100 µM	> 100 µM		> 100 µM								
O=C1OC(CCCl)(c2ccccc2)CC1CN1CCOCC1 (centres undefined)	26.5 µM	61.3 µM	83.1 µM	23.7 µM	27.9 µM	> 100 µM	57.5 µM	51.7 µM	30.5 µM								
CCN1CCC(CCOC)(CN2c3ccccc3Sc3ccc(Cl)cc32)C1 (centres undefined)				6.16 µM	5.7 µM	8.67 µM	4.74 µM	5.8 µM	3.67 µM	1.86 µM	3.54 µM	2.2 µM	2.52 µM	2.73 µM	2.54 µM	2.25 µM	2.03 µM
CCOC(=O)C1=C(O)C(=O)c2ccsc2C1=O	> 100 µM	> 100 µM	> 100 µM	> 100 µM	> 100 µM	> 100 µM	> 100 µM	> 100 µM	> 100 µM								
COc1ccc(OC)c(NC(=O)CCC/C(CC(=O)c2ccc(O)c(OC)c2)=N\NC(=O)C[N+](C)(C)C)c1	> 100 µM	> 100 µM	> 100 µM	> 100 µM	> 100 µM	> 100 µM	> 100 µM	> 100 µM	> 100 µM								
CN(C)c1nc(=Nc2ccc3ccccc3c2)ss1	54.7 µM	> 100 µM			52.5 µM	> 100 µM	> 100 µM	> 100 µM	71.1 µM								
CCOC(=O)C(=O)Nc1c(CC)cccc1C(C)C			> 100 µM	> 100 µM	> 100 µM	> 100 µM	> 100 µM	> 100 µM	> 100 µM								
Cc1cc2c(C)n(Cc3ccc(Cl)cc3Cl)nc2c(C#N)c1C	> 100 µM	> 100 µM	> 100 µM	> 100 µM	> 100 µM	> 100 µM	> 100 µM	62 µM	68.4 µM								
COc1cc(C(=O)C/C(CCC(=O)Nc2ccccc2[N+](=O)[O-])=N\NC(=O)CC#N)ccc1O	> 100 µM	> 100 µM	> 100 µM	> 100 µM	> 100 µM	> 100 µM	> 100 µM	> 100 µM	> 100 µM								
Cn1c(/C=C(\O)c2ccc(Cl)cc2)nc2ccccc21	77.1 µM	> 100 µM	> 100 µM	> 100 µM	> 100 µM	> 100 µM	> 100 µM	> 100 µM									
CCOc1ccc2nc(NC(=O)c3c/c(=N\NC(=O)C[N+](C)(C)C)c4ccc(O)cc4o3)sc2c1	3.83 µM	6.08 µM	5.73 µM	7.13 µM	8.31 µM	11.6 µM	6.22 µM	3.53 µM	36.5 µM								
CCOC(=O)c1nc2ccc([N+](=O)[O-])cc2c2c1CCO2	> 100 µM	> 100 µM	> 100 µM	> 100 µM		> 100 µM	> 100 µM	> 100 µM	> 100 µM								
